# Data from patent publication US5137811A, “Method for diagnosing periodontal diseases with a substrate specific for aminopeptidase activity of periodontopathic bacteria” (Sunstar Kabushiki Kaisha, priority 1986, dated 1992).
# Where a SMILES comes first, the peptide text is derived from it. The star is where a group is joined. βNA = c1ccc2cc(N*)ccc2c1; Cbz = O=C(OCc1ccccc1)*; Bz = O=C(c1ccccc1)*
# Tests used:
# [1] = system: periodontopathic bacteria specific aminopeptidase activity; test: Hydrolytic activity of gingival crevicular fluid specimens, visually evaluated (Experiment 4); assay type: biochemical; parameters: key: -: orange; +: dark orange; ++: brown; +++: dark brown
# Method: (§1) Substrate compounds for aminopeptidase enzyme having various color developing groups derived from β-naphthylamine were dissolved in 0.1M Tris-HCl buffer (pH 7.0) at the concentration of 0.2 mM to obtain substrate solutions.
# (§2) To the substrate solution (1.5 ml) was added the above cell suspension (0.3 ml) and reacted at 37° C. for 60 minutes. After completion of the reaction, a coloring reagent [prepared by dissolving diazonium salt of Garnet GBC in 1M acetate buffer (containing 10% Tween 20, pH: 4.2) at the concentration of 0.5 mg/ml] was added and, after 15 minutes, the absorption at 525 nm was determined with a spectrophotometer.
# Specimens of gingival crevicular fluid were collected with paper points from five subjects who were considered to be healthy from their clinical state, six subjects with gingivitis and six subjects with periodontitis. Each specimen was dispersed in Ringer's solution (1.5 ml), and the relative amount of spirochete to total bacteria: [formula] was determined with a phase contrast microscope. Further, the Ringer's solution (0.3 ml) was tested for hydrolytic activity using the substrate solution prepared in the same manner as described in Experiment 1. As substrates, there were used compounds of the formula [1], i.e., N-benzoylvalyl-glycyl-arginine-β-naphthylamide (BzVGR) and N-carbobenzoxy-valyl-glycyl-arginine-β-naphthylamide (CxVGR) were used.
# In table 4, hydrolytic activity was visually evaluated and expressed as follows: […]
# Treponema denticola = test: Hydrolytic activity of oral anaerobe cell suspension on aminopeptidase substrates (Experiment 1); assay type: cell-based; settings: four strains, substrate 0.2 mM, pH 7.0, 37° C., 60 minutes, Table 1
# Method: (§3) Oral anaerobes, i.e., four strains of Treponema denticola, five strains of B. gingivalis, four strains of Actinobacillus actinomycetemcomitans, four strains of Capnocytophaga sp. and three strains of Fusobacterium nucleatum were tested for hydrolytic activity to the substrate of aminopeptidase enzyme as follows.
# (§4) The strains of Treponema were anaerobically cultivated using TYGVS media at 37° C. for 7 days, while other bacterial strains were cultivated using brain heart infusion broth at 37° C. for 48 to 72 hours. Each culture was diluted to obtain a bacterial cell suspension, the absorption at 660 nm of which was 1.0.
# as §1, §2
# (§5) On the basis of the average amount of released β-naphthylamine in each strain, the hydrolytic activity was expressed as follows: […]
# Capnocytophaga sp. = test: as above; assay type: cell-based; settings: four strains, substrate 0.2 mM, pH 7.0, 37° C., 60 minutes, Table 1
# Method: as §3, §4, §1, §2, §5
# Bacteroides gingivalis = test: as above; assay type: cell-based; settings: five strains, substrate 0.2 mM, pH 7.0, 37° C., 60 minutes, Table 1
# Method: as §3, §4, §1, §2, §5
# [2] = system: Actinobacillus actinomycetemcomitans; test: as above; assay type: cell-based; settings: four strains, substrate 0.2 mM, pH 7.0, 37° C., 60 minutes, Table 1
# Method: as §3, §4, §1, §2, §5
# Fusobacterium nucleatum = test: as above; assay type: cell-based; settings: three strains, substrate 0.2 mM, pH 7.0, 37° C., 60 minutes, Table 1
# Method: as §3, §4, §1, §2, §5
SMILES,hydrolytic activity (average amount of released β-naphthylamine) (Treponema denticola),hydrolytic activity (average amount of released β-naphthylamine) (Capnocytophaga sp.),hydrolytic activity (average amount of released β-naphthylamine) (Bacteroides gingivalis),hydrolytic activity (average amount of released β-naphthylamine) [2],hydrolytic activity (average amount of released β-naphthylamine) (Fusobacterium nucleatum),other results
"CC(C)[C@H](NC(=O)c1ccccc1)C(=O)NCC(=O)N[C@@H](CCCNC(=N)N)C(=O)Nc1ccc2ccccc2c1 [BzVGR, N-benzoyl-valyl-glycyl-arginine-β-naphthylamide] (Bz-Val-Gly-Arg-βNA)",+++ (release amount≥40 nmol/ml),- (release amount<5 nmol/ml),+++ (release amount≥40 nmol/ml),- (release amount<5 nmol/ml),- (release amount<5 nmol/ml),"hydrolytic activity, visually evaluated ([1]; Gingivitis subject 1 (spirochete 7.3 %)): +; hydrolytic activity, visually evaluated ([1]; Gingivitis subject 2 (spirochete 16.7 %)): +; hydrolytic activity, visually evaluated ([1]; Gingivitis subject 3 (spirochete 20.5 %)): ++; hydrolytic activity, visually evaluated ([1]; Gingivitis subject 4 (spirochete 6.8 %)): -; hydrolytic activity, visually evaluated ([1]; Gingivitis subject 5 (spirochete 7.3 %)): -; hydrolytic activity, visually evaluated ([1]; Gingivitis subject 6 (spirochete 14.4 %)): +; hydrolytic activity, visually evaluated ([1]; Healthy subject 1 (spirochete 0.1 %)): -; hydrolytic activity, visually evaluated ([1]; Healthy subject 2 (spirochete 2.5 %)): +; hydrolytic activity, visually evaluated ([1]; Healthy subject 3 (spirochete 1.1 %)): -; hydrolytic activity, visually evaluated ([1]; Healthy subject 4 (spirochete 0.6 %)): -; hydrolytic activity, visually evaluated ([1]; Healthy subject 5 (spirochete 1.3 %)): -; hydrolytic activity, visually evaluated ([1]; Periodontitis subject 1 (spirochete 45.2 %)): +++; hydrolytic activity, visually evaluated ([1]; Periodontitis subject 2 (spirochete 30.3 %)): +++; hydrolytic activity, visually evaluated ([1]; Periodontitis subject 3 (spirochete 34.6 %)): +++; hydrolytic activity, visually evaluated ([1]; Periodontitis subject 4 (spirochete 21.2 %)): +++; hydrolytic activity, visually evaluated ([1]; Periodontitis subject 5 (spirochete 40.3 %)): +++; hydrolytic activity, visually evaluated ([1]; Periodontitis subject 6 (spirochete 35.1 %)): +++"
"N=C(N)NCCC[C@H](NC(=O)[C@H](Cc1ccccc1)NC(=O)OCc1ccccc1)C(=O)Nc1ccc2ccccc2c1 [CxFR, N-carbobenzoxy-phenylalanyl-arginine-β-naphthylamide] (Cbz-Phe-Arg-βNA)",+++ (release amount≥40 nmol/ml),- (release amount<5 nmol/ml),+++ (release amount≥40 nmol/ml),- (release amount<5 nmol/ml),- (release amount<5 nmol/ml),
"N=C(N)NCCC[C@H](NC(=O)[C@H](CCCCN)NC(=O)OCc1ccccc1)C(=O)Nc1ccc2ccccc2c1 [CxKR, N-carbobenzoxy-lysyl-arginine-β-naphthylamide] (Cbz-Lys-Arg-βNA)",++ (20 ≤release amount<40 nmol/ml),- (release amount<5 nmol/ml),++ (20 ≤release amount<40 nmol/ml),- (release amount<5 nmol/ml),- (release amount<5 nmol/ml),
"N=C(N)NCCC[C@H](NC(=O)OCc1ccccc1)C(=O)N[C@@H](CCCNC(=N)N)C(=O)Nc1ccc2ccccc2c1 [CxRR, N-carbobenzoxy-arginyl-arginine-β-naphthylamide] (Cbz-Arg-Arg-βNA)",+ +,- (release amount<5 nmol/ml),+++ (release amount≥40 nmol/ml),- (release amount<5 nmol/ml),- (release amount<5 nmol/ml),
"N=C(N)NCCC[C@H](NC(=O)[C@@H](N)Cc1ccccc1)C(=O)Nc1ccc2ccccc2c1 [FR, phenylalanyl-arginine-β-naphthylamide] (H-Phe-Arg-βNA)",+ (10 ≤release amount<20 nmol/ml),± (5 ≤release amount<10 nmol/ml),+ (10 ≤release amount<20 nmol/ml),- (release amount<5 nmol/ml),- (release amount<5 nmol/ml),
"NCC(=O)N[C@@H](Cc1ccccc1)C(=O)Nc1ccc2ccccc2c1 [GF, glycyl-phenylalanine-β-naphthylamide, reference compound] (H-Gly-Phe-βNA)",- (release amount<5 nmol/ml),± (5 ≤release amount<10 nmol/ml),++ (20 ≤release amount<40 nmol/ml),- (release amount<5 nmol/ml),- (release amount<5 nmol/ml),
"NCCCC[C@H](NC(=O)CN)C(=O)Nc1ccc2ccccc2c1 [GK, glycyl-lysine-β-naphthylamide, reference compound] (H-Gly-Lys-βNA)",- (release amount<5 nmol/ml),+ (10 ≤release amount<20 nmol/ml),+ (10 ≤release amount<20 nmol/ml),- (release amount<5 nmol/ml),- (release amount<5 nmol/ml),
"N=C(N)NCCC[C@H](NC(=O)[C@@H](N)CCCCN)C(=O)Nc1ccc2ccccc2c1 [KR, lysyl-arginine-β-naphthylamide] (H-Lys-Arg-βNA)",+ (10 ≤release amount<20 nmol/ml),+ (10 ≤release amount<20 nmol/ml),++ (20 ≤release amount<40 nmol/ml),- (release amount<5 nmol/ml),- (release amount<5 nmol/ml),
"N=C(N)NCCC[C@H](NC(=O)[C@H](Cc1ccccc1)NC(=O)[C@@H]1CCCN1)C(=O)Nc1ccc2ccccc2c1 [PFR, prolyl-phenylalanyl-arginine-β-naphthylamide] (H-Pro-Phe-Arg-βNA)",+++ (release amount≥40 nmol/ml),- (release amount<5 nmol/ml),+++ (release amount≥40 nmol/ml),- (release amount<5 nmol/ml),- (release amount<5 nmol/ml),
"N=C(N)NCCC[C@H](N)C(=O)NCC(=O)Nc1ccc2ccccc2c1 [RG, arginyl-glycine-β-naphthylamide, reference compound] (H-Arg-Gly-βNA)",- (release amount<5 nmol/ml),+ (10 ≤release amount<20 nmol/ml),++ (20 ≤release amount<40 nmol/ml),- (release amount<5 nmol/ml),- (release amount<5 nmol/ml),
"N=C(N)NCCC[C@H](NC(=O)[C@@H](N)CCCNC(=N)N)C(=O)Nc1ccc2ccccc2c1 [RR, arginyl-arginine-β-naphthylamide] (H-Arg-Arg-βNA)",+++ (release amount≥40 nmol/ml),+ (10 ≤release amount<20 nmol/ml),+ (10 ≤release amount<20 nmol/ml),- (release amount<5 nmol/ml),- (release amount<5 nmol/ml),
